Data taken from PMC6272778, “New Lignans and Iridoid Glycosides from Dipsacus asper Wall” (Molecules, 2015).
pIC50: −log10 of the molar value.

Target: T1, HIV-1 integrase (Human immunodeficiency virus type 1 group M subtype B, UniProt P04585)
T1 construct: pre-incubated with 15 pmol integrase (IN) at 37 °C
Experiment: HIV-1 integrase strand transfer inhibition assay (microplate, magnetic beads)
Assay type: biochemical, human immunodeficiency virus-1 (HIV-1)
Details: for HIV-1 integrase inhibition activity (in words): qualitative summary of the integrase assay; for pIC50: strand transfer reaction, microplate screening method, positive control baicalein, read-out: IC50, inhibition activity against HIV-1 integrase
Protocol: The assays were performed in a 96-well microplate (Corning, New York, NY, USA) in a final volume of 50 μL. The wells were washed once with the reaction buffer (25 mM/L PIPES, pH 7.0, 10 mM/L β-mercaptoethanol, 5% (w/v) glycerol, 0.1 g/L bovin serum albumin (BSA), and 10 mM/L MnCl2). The compounds were diluted with dimethyl sulfoxide (DMSO) to a final concentration of 10% DMSO into the reaction volume (v/v) and pre-incubated with 15 pmol integrase (IN) at 37 °C in the reaction buffer in the absence of MnCl2 (10 mM/L) for 10 min. Subsequently, 1.5 pM donor DNA and 15 pM target DNA were added and the reaction was initiated. After incubation for 1 h at 37 °C, […] magnetic particles (6.7 × 10^8 beads/mL) and 51.5 μL binding buffer (10 mM/L Tris–HCl, pH 7.6, 2 M/LNaCl, 20 mM/L ethylene diamine tetraacetic acid (EDTA), and 0.1% [w/v] Tween 20) were added and incubated at 20 °C for 15 min. Then the wells holding the mixture were placed in a magnetic concentrator, the supernatant was discarded, and the wells were washed 3 times with phosphate buffered saline (PBS) containing 0.1% Tween20(PBST). Subsequently, 100 μL of 1:5000 diluted alkaline phosphatase (AP) conjugate anti-DIG antibody was added and incubated for 30 min at 37 °C. Finally, the wells were washed 3 times with PBST and the magnetic beads were transferred into fresh wells; 100 μL P-nitrophenyl phosphate (P-NPP) substrate (0.1 M/L Na2CO3, pH 9.5, 6.7 mM/L P-NPP, and 2 mM/L MgCl2) was added. The plates were read at 405 nm with a Model 680 microplate reader (Bio-Rad, Hercules, CA, USA). In the assay, baicalein was used as the positive control.
The IC50 values of the samples were calculated based on the assay results after curve fitting according to a non-linear regression.

| Structure (SMILES) | HIV-1 integrase inhibition activity (in words) | pIC50 |
| --- | --- | --- |
| COc1cc([C@@H]2OC[C@@]3(O)[C@@H]2CO[C@H]3c2cc(OC)c(O)c(OC)c2)ccc1O [Compound 1, (+)-8-hydroxy-7,7'-bis-epi-fraxiresinol] | weak HIV-1 integrase inhibitory activities | 4.27 |
| C=CC1C(OC2OC(CO)C(O)C(O)C2O)OC=C(C(=O)OC2CC3C(C(=O)OC)=COC(OC4OC(CO)C(O)C(O)C4O)C3C2C)C1CC1OC(C)C(C)O1 (stereo not drawn) [Compound 7, dipsanoside M] | weak HIV-1 integrase inhibitory activities | 4.08 |
| COc1cc([C@@H]2OC[C@@]3(O)[C@@H]2CO[C@H]3c2ccc(O)c(OC)c2)ccc1O [Compound 2, (+)-8-hydroxy-7,7'-bis-epi-pinoresinol] | weak HIV-1 integrase inhibitory activities | 4.21 |
| O=c1cc(-c2ccccc2)oc2cc(O)c(O)c(O)c12 [baicalein, reference compound] |  | 5.86 |
| C=CC1C(OC2OC(CO)C(O)C(O)C2O)OC=C(C(=O)OC2CC3C(C(=O)OC)=COC(OC4OC(CO)C(O)C(O)C4O)C3C2C)C1CC1OC(C)C(C)O1 (stereo not drawn) [Compound 8, dipsanosides N] | weak HIV-1 integrase inhibitory activities | 4.03 |
